Among the test systems are NCI-H522 lung; HCT-15 colon; OVCAR-5 ovarian; KM12 colon; EKVX NSCLC; COLO 205 colon; MALME-3M melanoma; SF-539 CNS; HCT-116 colon; 786-0 renal.
Assay in all cases: inhibition of tumour cell growth, NCI panel, 48 h

The record followed here is PubChem BioAssay (NCI).

SMILES strings stand for the structures.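 Test compounds were applied to cells in 96-well plates for 48 hours at 5 doses. Here, GI50 denotes the concentration required for 50% inhibition of growth. The concentration for full growth arrest is given as TGI.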

Take `COc1ccc(C2CC(=O)c3c(OC)cc(OC)cc3O2)cc1` (centres undefined): the GI50 with NCI-H522 lung, in the experiment on HCT-15 colon, in the experiment on OVCAR-5 ovarian, in the experiment with KM12 colon, in the experiment with EKVX NSCLC and in the experiment with COLO 205 colon was greater than 100 µM each time. Moreover, the GI50 with MALME-3M melanoma, with SF-539 CNS, in the experiment on HCT-116 colon and with 786-0 renal was greater than 100 µM each time. For the same molecule, the TGI in the experiment with NCI-H522 lung, in the experiment on HCT-15 colon, in the experiment with OVCAR-5 ovarian, in the experiment with KM12 colon, with EKVX NSCLC and in the experiment with COLO 205 colon was greater than 100 µM each time. The TGI with MALME-3M melanoma, with SF-539 CNS, in the experiment on HCT-116 colon and in the experiment on 786-0 renal was greater than 100 µM each time.
With `Cc1cccc(C(C)(C)C)c1NC(=O)CCc1n[nH]c(=S)o1`, the TGI in the experiment with NCI-H522 lung is greater than 100 µM; in the experiment with HCT-15 colon, 49 µM; in the experiment on OVCAR-5 ovarian it was greater than 100 µM; in the experiment on KM12 colon, greater than 100 µM; in the experiment with EKVX NSCLC it was greater than 100 µM; in the experiment on COLO 205 colon it was 47.6 µM. Also, the TGI was greater than 100 µM in the experiment on MALME-3M melanoma, greater than 100 µM in the experiment on SF-539 CNS, 33.9 µM with HCT-116 colon and greater than 100 µM in the experiment on 786-0 renal.
As to `C[C@]12CC[C@@H]3c4ccc(O)cc4C[C@@H](CCCCCCCCCS(=O)CCCC(F)(F)C(F)(F)F)[C@H]3[C@@H]1CC[C@@H]2O` (some centres undefined), the GI50 with NCI-H522 lung was greater than 26.2 µM; with HCT-15 colon, greater than 100 µM; in the experiment on OVCAR-5 ovarian, greater than 100 µM; with KM12 colon, greater than 100 µM; in the experiment with EKVX NSCLC, greater than 100 µM; with COLO 205 colon, greater than 100 µM. Also, the GI50 with MALME-3M melanoma, in the experiment on SF-539 CNS and in the experiment with 786-0 renal was greater than 100 µM throughout. Besides, the TGI with NCI-H522 lung, in the experiment on HCT-15 colon, with OVCAR-5 ovarian, in the experiment on KM12 colon, in the experiment on EKVX NSCLC and in the experiment on COLO 205 colon was greater than 100 µM throughout. The TGI with MALME-3M melanoma, in the experiment with SF-539 CNS, in the experiment with HCT-116 colon and with 786-0 renal was greater than 100 µM throughout.
In the case of `Cc1ccc(C(=O)/C=C/c2ccccc2O)c(C)c1`, the TGI in the experiment on NCI-H522 lung, in the experiment on HCT-15 colon, with OVCAR-5 ovarian, with KM12 colon, in the experiment on EKVX NSCLC and in the experiment on COLO 205 colon was greater than 100 µM each time. The TGI in the experiment on MALME-3M melanoma, in the experiment with SF-539 CNS, in the experiment with HCT-116 colon and with 786-0 renal was greater than 100 µM throughout.
In the case of `NCCCCn1c2c(c3ccccc3c1=O)C(=O)c1ccccc1-2`, the GI50 with NCI-H522 lung was 0.424 µM; in the experiment on HCT-15 colon, 0.0582 µM; in the experiment on OVCAR-5 ovarian, 0.494 µM; with KM12 colon, 0.188 µM; in the experiment on EKVX NSCLC it was 1.21 µM; with COLO 205 colon, 0.92 µM. Also, the GI50 in the experiment with MALME-3M melanoma is 0.311 µM; with SF-539 CNS, 0.102 µM; with HCT-116 colon, 0.092 µM; with 786-0 renal it was 0.0639 µM. The TGI is 2.31 µM with NCI-H522 lung; 0.412 µM in the experiment with HCT-15 colon; 1.37 µM in the experiment with OVCAR-5 ovarian; 0.678 µM in the experiment on KM12 colon; 4.62 µM in the experiment with EKVX NSCLC; 11 µM with COLO 205 colon. Moreover, the TGI with MALME-3M melanoma was determined as 1.12 µM; with SF-539 CNS it was 0.462 µM; in the experiment with HCT-116 colon, 1.76 µM; in the experiment with 786-0 renal, 0.573 µM.
Turning to `CC(=O)NC(CCCN)C(=O)NCc1ccccc1` (centres undefined), the TGI with NCI-H522 lung, in the experiment with HCT-15 colon, with OVCAR-5 ovarian, in the experiment on KM12 colon, with EKVX NSCLC and in the experiment with COLO 205 colon was greater than 100 µM in each case. For the same molecule, the TGI with MALME-3M melanoma, with SF-539 CNS, in the experiment on HCT-116 colon and with 786-0 renal was greater than 100 µM in each case.
`O=C(CCCSc1nc(-c2ccc(Cl)cc2)cc(-c2ccc(Cl)cc2)n1)NO`: the GI50 in the experiment with NCI-H522 lung was 1.27 µM; with HCT-15 colon, 0.385 µM; with OVCAR-5 ovarian, 1.42 µM; with KM12 colon, 1.96 µM; in the experiment on EKVX NSCLC, 1.14 µM; in the experiment on COLO 205 colon it was 2.06 µM. Also, the GI50 is 2.25 µM in the experiment on MALME-3M melanoma, 1.26 µM in the experiment with SF-539 CNS, 0.532 µM in the experiment with HCT-116 colon and 0.971 µM in the experiment on 786-0 renal. In addition, the TGI came to 8.11 µM with NCI-H522 lung; 11.9 µM with HCT-15 colon; 9.01 µM in the experiment on OVCAR-5 ovarian; 11.3 µM in the experiment with KM12 colon; 12.7 µM in the experiment with EKVX NSCLC; 6.21 µM with COLO 205 colon. For the same molecule, the TGI in the experiment with MALME-3M melanoma is 11.6 µM; in the experiment with SF-539 CNS it was 4.93 µM; with HCT-116 colon, 17 µM; in the experiment on 786-0 renal, 13.1 µM.
As to `COc1cc2c3c(n(CCCBr)c(=O)c2cc1OC)-c1ccc(NC(C)=O)cc1C3=O`, the GI50 with NCI-H522 lung was 12.4 µM; with HCT-15 colon, 30.8 µM; in the experiment on OVCAR-5 ovarian, 52.6 µM; with KM12 colon, 7.35 µM; with EKVX NSCLC, 47.8 µM; with COLO 205 colon, 14.1 µM. Besides, the GI50 in the experiment on MALME-3M melanoma was 60.9 µM; with SF-539 CNS, 3.78 µM; in the experiment with HCT-116 colon it was 2.58 µM; with 786-0 renal it was 5.4 µM. Also, the TGI with NCI-H522 lung, in the experiment with HCT-15 colon, with OVCAR-5 ovarian, in the experiment with KM12 colon, with EKVX NSCLC and in the experiment with COLO 205 colon was greater than 100 µM each time. Moreover, the TGI with MALME-3M melanoma was greater than 100 µM; in the experiment on SF-539 CNS, 16.2 µM; in the experiment on HCT-116 colon it was 18.1 µM; with 786-0 renal, 25.2 µM.
Take `COc1ccc2cc(C(=O)/C=C/c3cccc(OC)c3OC)ccc2c1`: the GI50 in the experiment on NCI-H522 lung was 10.2 µM; with HCT-15 colon, 3.53 µM; in the experiment on OVCAR-5 ovarian, 20.2 µM; in the experiment on KM12 colon, 13 µM; with EKVX NSCLC, 17.9 µM; in the experiment on COLO 205 colon it was 20.4 µM. Moreover, the GI50 was 10.4 µM in the experiment with MALME-3M melanoma, 11.1 µM with SF-539 CNS, 3.62 µM with HCT-116 colon and 4.26 µM with 786-0 renal. Besides, the TGI was 29.6 µM in the experiment with NCI-H522 lung; 15.4 µM in the experiment with HCT-15 colon; 40.7 µM in the experiment on OVCAR-5 ovarian; 33.1 µM with KM12 colon; 36.7 µM with EKVX NSCLC; 78.5 µM in the experiment on COLO 205 colon. Also, the TGI in the experiment on MALME-3M melanoma stood at 29.4 µM; in the experiment on SF-539 CNS it was 26.1 µM; in the experiment on HCT-116 colon, 13.3 µM; in the experiment with 786-0 renal, 16.6 µM.
